Measurements published in patent US10782295B2, “Cysteine-reactive ligand discovery in proteomes” (THE SCRIPPS RESEARCH INSTITUTE, priority 2013, dated 2020).

How the values were obtained:
Assay in all cases: competitive isoTOP-ABPP, MDA-MB-231 soluble proteome
Assay type in all cases: binding
CHRAC1 = biological target: T1, CHRAC1 (Homo sapiens, UniProt Q9NRG0); settings: 100 μM LDE, 60 min; peptide ATELFVQC*LATYSYR
T1 construct: directly in native proteomes; endogenous in cells; host or cells: MDA-MB-231
T1 sequence (Q9NRG0 1-131): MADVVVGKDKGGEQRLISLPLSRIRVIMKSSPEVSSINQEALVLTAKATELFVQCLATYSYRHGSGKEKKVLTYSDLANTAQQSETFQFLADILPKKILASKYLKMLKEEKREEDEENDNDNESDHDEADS
Protocol: (§1) Here, we envisioned that isoTOP-ABPP could be advanced to discover and quantify reactions between cysteines in proteomes and any electrophilic compound. In this advanced, ‘competitive’ version of isoTOP-ABPP (FIG. 1a), a proteome is treated with an electrophile (experimental sample) or DMSO (control sample). Both proteomic samples are then labeled with the IA probe and conjugated by CuAAC to light and heavy azide-biotin tags, respectively. The light and heavy samples are then mixed and subjected to our described isoTOP-ABPP protocol for enrichment, identification, and quantification of IA-labeled cysteines^30. Electrophile-modified cysteines are quantified by measuring the MS1 chromatographic peak ratios (R values) for heavy (DMSO-treated) over light (electrophile-treated) samples, with higher R values reflecting greater sensitivity to the electrophile. In this format, competitive isoTOP-ABPP can assay electrophiles against 1000+ cysteines in parallel directly in native proteomes without requiring any chemical modification to the electrophiles themselves.
(§2) Competitive isoTOP-ABPP experiments were performed in quadruplicate using the soluble proteome of the human breast cancer cell line MDA-MB-231 cell line. Proteomes were treated with 100 μM HNE, 15d-PGJ2, or 2-HD, for 60 minutes, followed by the IA-probe (100 μM, 60 min) A total of ˜1400 cysteine reactivities were quantified across the aggregate data set, with at least 900 cysteine reactivities quantified for each LDE (FIG. 2a) more than 750 of which were quantified for all the three electrophiles.
(§3) HNE was purchased from EMD biosciences, 15d-PGJ2 was purchased from Cayman Chemicals and 2-HD was purchased from Santa Cruz Biotechnology. Proteome samples were diluted to a 4 mg protein/mL solution in PBS. For each profiling experiment, one aliquot of the proteome sample (0.5 mL) was treated with 100 μM of LDE using 5 μL of a 10 mM stock and the other aliquot was treated with 5 μL of either ethanol (for HNE and 15d-PGJ2) or DMSO (for 2-HD) as control. For the concentration-dependent profiling experiments using HNE, aliquots of the proteomes (0.5 mL each) were treated with 5, 10, 50, 100 and 500 μM of HNE using 5 μL of 0.5, 1.0, 5, 10 and 50 mM of stock solution, respectively. After 60 minutes of treatment at room temperature, both the LDE-treated and control aliquots were passed through a NAP-5 Sephadex column (GE healthcare) to remove any unreacted LDE. The volume of each aliquot was increased to 1 mL with the concentration at 2 mg/mL after this step.
(§4) Each of the control and LDE-treated proteome samples (˜2 mg protein/mL in 1 mL volume) was treated with 100 μM of IA-probe using 10 μL of a 10 mM stock in DMSO. The labeling reactions were incubated at room temperature for 1 hour. Click chemistry (acetylene-azide cycloaddition) was performed by the addition of 100 μM of either the Heavy-TEV-Tag (for the control sample) or Light-TEV-Tag (for the LDE-treated sample) (20 μL of a 5 mM stock), 1 mM TCEP (fresh 50× stock in water), 100 μM ligand (17× stock in DMSO:t-Butanol 1:4) and 1 mM CuSO4 (50× stock in water). Samples were allowed to react at room temperature for 1 hour. After the click chemistry step, the light and heavy-labeled samples were mixed together and centrifuged (5900×g, 4 min, 4° C.) to pellet the precipitated proteins.
(§5) The pellets were washed twice in cold MeOH, after which the pellet was solubilized in PBS containing 1.2% SDS via sonication and heating (5 min, 80° C.). Samples were subjected to streptavidin enrichment of probe-labeled proteins, sequential on-bead trypsin and TEV digestion, and liquid chromatography-mass spectrometry (LC-MS) analysis according to the published isoTOP-ABPP protocol^30.
(§6) IA-probe labeled peptides were identified by SEQUEST2 and DTASelect3, and the quantification of heavy/light ratios (isoTOP-ABPP ratios, R) was performed by an in-house software (CIMAGE) as previously described. […]

DYNC1L11 = biological target: T2, DYNC1L11 (Homo sapiens, UniProt Q9Y6G9); settings: 100 μM LDE, 60 min; peptide SEQ ID NO: 25 (...NLWSC*ILSEVSTR)
T2 construct: directly in native proteomes; endogenous in cells; host or cells: MDA-MB-231
Protocol: as §1, §2, §3, §4, §5, §6

IFIT3 = biological target: T3, IFIT3 (Homo sapiens, UniProt O14879); settings: 100 μM LDE, 60 min; peptide GLNPLNAYSDLAEFLETEC*YQTPFNK
T3 construct: directly in native proteomes; endogenous in cells; host or cells: MDA-MB-231
T3 sequence (O14879 1-490): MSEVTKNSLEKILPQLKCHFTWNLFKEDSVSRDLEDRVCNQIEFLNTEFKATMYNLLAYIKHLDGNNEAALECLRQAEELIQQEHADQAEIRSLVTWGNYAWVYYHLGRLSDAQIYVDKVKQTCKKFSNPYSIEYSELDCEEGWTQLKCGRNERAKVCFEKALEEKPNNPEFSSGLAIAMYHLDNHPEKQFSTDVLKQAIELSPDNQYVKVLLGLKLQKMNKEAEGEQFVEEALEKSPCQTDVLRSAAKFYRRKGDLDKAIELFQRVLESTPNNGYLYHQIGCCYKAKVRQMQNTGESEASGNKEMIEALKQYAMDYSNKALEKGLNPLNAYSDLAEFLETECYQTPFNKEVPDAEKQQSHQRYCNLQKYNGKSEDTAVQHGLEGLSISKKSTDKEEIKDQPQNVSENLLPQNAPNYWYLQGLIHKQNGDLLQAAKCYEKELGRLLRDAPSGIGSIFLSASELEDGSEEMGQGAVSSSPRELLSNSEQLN
Protocol: as §1, §2, §3, §4, §5, §6

MACROD1 = biological target: T4, MACROD1 (Homo sapiens, UniProt Q9BQ69); settings: 100 μM LDE, 60 min; peptide LEVDAIVNAANSSLLGGGGVDGC*IHR
T4 construct: directly in native proteomes; endogenous in cells; host or cells: MDA-MB-231
T4 sequence (Q9BQ69 1-325): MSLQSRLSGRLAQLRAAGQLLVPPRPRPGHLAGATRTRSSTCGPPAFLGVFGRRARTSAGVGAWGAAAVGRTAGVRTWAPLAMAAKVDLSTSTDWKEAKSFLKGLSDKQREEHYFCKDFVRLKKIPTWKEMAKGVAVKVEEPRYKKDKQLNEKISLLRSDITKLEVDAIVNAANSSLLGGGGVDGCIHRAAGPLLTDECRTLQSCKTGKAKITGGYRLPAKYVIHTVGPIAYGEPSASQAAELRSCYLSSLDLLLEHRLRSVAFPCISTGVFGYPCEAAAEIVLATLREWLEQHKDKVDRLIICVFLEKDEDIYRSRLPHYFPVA
Protocol: as §1, §2, §3, §4, §5, §6

RPL23 = biological target: T5, RPL23 (Homo sapiens, UniProt P62829); settings: 100 μM LDE, 60 min; peptide ISLGLPVGAVINC*ADNTGAK
T5 construct: directly in native proteomes; endogenous in cells; host or cells: MDA-MB-231
Protocol: as §1, §2, §3, §4, §5, §6

T2 sequence (Q9Y6G9 whole entry): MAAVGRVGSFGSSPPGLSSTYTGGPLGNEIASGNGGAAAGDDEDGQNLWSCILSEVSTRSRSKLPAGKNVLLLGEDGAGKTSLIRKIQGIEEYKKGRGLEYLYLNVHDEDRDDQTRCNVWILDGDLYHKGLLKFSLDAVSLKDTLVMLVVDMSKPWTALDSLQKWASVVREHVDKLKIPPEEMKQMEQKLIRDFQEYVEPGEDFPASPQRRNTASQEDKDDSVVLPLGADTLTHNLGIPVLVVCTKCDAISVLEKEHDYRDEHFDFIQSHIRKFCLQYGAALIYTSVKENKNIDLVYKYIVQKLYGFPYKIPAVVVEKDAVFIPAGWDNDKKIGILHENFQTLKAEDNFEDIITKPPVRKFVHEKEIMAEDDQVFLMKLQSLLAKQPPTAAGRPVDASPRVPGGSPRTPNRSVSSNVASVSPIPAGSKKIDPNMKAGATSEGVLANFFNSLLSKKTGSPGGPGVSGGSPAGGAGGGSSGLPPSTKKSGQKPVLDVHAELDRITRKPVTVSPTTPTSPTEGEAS

Row | Compound | R value (isoTOP-ABPP ratio heavy/light) for IA-labeled cysteine of CHRAC1 (CHRAC1) | R value (isoTOP-ABPP ratio heavy/light) for IA-labeled cysteine of DYNC1L11 (DYNC1L11) | R value (isoTOP-ABPP ratio heavy/light) for IA-labeled cysteine of IFIT3 (IFIT3) | R value (isoTOP-ABPP ratio heavy/light) for IA-labeled cysteine of MACROD1 (MACROD1) | R value (isoTOP-ABPP ratio heavy/light) for IA-labeled cysteine of RPL23 (RPL23)
1 | CCCCC/C=C/C=C1/C(=O)C=C[C@@H]1C/C=C\CCCC(=O)O [PGJ2, 15-deoxy-Δ12,14-prostaglandin J2] | 12.32 | 5.18 | 9.43 | 7.65 | 5.06
2 | CCCCCC(O)/C=C/C=O (stereo not drawn) [4-HNE, 4-Hydroxynonenal] | 1.94 | 2.59 | 1.51 | 1.56 | 1.73
3 | CCCCCCCCCCCCC/C=C/C=O [2-HD, 2-trans-hexadecenal] | 1.06 | 1.1 | 1.23 | 1.02 | 1.87
